Measured values reported in patent US8785457B2 (Cellzome Limited, priority 2009, dated 2014).

Columns and labels:
PI3 Kgamma (PI3 Kg) = target: T1, PI3 Kgamma (PI3 Kg) (Homo sapiens, UniProt P48736); experiment: kinobeads assay, PI3Kgamma; format: binding; conditions: kinobeads assay, Table 6; read-out: Inhibition values (IC50) PI3Kg
T1 construct: endogenous in cells; host or cells: cell lysate
How it was run: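 IC50 values derive from per-kinase dose-response curves in a lysate-based competition binding format. Kinases retained on phenylmorpholin-chromen beads in the presence of compound were eluted and detected by multiplexed immunodetection.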

PI3K delta (PI3 Kd) = target: T2, PI3K delta (PI3 Kd) (Homo sapiens, UniProt O00329); experiment: kinobeads assay, PI3K delta; format: binding; conditions: kinobeads assay, Table 6; read-out: Inhibition values (IC50) PI3Kd
T2 construct: endogenous in cells; host or cells: Jurkat, clone E6-1 (ATCC TIB-152) cell lysate
How it was run: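 Competitive binding in Jurkat cell lysate (5 mg/ml total protein): test compounds at various concentrations competed with beads bearing immobilized phenylmorpholin-chromen ligand. Bead-bound kinases were eluted and quantified by antibody dot blot with infrared detection; IC50 values came from dose-response curves.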

T1 sequence (P48736 whole entry): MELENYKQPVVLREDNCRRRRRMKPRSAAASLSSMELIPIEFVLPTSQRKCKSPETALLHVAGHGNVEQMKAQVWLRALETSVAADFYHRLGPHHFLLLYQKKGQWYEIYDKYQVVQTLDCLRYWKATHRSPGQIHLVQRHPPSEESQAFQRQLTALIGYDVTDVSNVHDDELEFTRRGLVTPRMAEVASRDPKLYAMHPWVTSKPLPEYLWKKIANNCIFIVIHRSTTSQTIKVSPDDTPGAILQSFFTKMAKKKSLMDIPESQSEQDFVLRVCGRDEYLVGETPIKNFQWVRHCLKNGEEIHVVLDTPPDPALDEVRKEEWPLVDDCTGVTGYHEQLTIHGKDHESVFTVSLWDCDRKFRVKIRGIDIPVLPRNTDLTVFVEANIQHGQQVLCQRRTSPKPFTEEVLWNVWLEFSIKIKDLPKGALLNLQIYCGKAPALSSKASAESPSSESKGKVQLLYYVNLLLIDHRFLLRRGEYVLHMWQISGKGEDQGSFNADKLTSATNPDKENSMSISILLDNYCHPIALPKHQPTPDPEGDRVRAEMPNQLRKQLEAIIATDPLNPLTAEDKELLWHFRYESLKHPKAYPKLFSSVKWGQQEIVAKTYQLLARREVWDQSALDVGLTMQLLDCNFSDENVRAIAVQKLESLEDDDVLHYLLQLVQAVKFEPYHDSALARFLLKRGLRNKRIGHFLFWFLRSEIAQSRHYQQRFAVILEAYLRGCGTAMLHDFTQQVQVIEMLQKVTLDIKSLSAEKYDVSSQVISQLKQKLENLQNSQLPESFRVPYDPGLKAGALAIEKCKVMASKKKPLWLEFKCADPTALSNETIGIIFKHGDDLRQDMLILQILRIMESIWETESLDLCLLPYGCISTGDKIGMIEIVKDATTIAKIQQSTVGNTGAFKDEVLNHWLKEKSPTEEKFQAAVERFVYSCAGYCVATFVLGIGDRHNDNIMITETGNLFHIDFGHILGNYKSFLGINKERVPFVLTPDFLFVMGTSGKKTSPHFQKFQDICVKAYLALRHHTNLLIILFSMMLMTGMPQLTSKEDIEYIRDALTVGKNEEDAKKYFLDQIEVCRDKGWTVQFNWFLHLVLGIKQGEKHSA
T2 sequence (O00329 whole entry): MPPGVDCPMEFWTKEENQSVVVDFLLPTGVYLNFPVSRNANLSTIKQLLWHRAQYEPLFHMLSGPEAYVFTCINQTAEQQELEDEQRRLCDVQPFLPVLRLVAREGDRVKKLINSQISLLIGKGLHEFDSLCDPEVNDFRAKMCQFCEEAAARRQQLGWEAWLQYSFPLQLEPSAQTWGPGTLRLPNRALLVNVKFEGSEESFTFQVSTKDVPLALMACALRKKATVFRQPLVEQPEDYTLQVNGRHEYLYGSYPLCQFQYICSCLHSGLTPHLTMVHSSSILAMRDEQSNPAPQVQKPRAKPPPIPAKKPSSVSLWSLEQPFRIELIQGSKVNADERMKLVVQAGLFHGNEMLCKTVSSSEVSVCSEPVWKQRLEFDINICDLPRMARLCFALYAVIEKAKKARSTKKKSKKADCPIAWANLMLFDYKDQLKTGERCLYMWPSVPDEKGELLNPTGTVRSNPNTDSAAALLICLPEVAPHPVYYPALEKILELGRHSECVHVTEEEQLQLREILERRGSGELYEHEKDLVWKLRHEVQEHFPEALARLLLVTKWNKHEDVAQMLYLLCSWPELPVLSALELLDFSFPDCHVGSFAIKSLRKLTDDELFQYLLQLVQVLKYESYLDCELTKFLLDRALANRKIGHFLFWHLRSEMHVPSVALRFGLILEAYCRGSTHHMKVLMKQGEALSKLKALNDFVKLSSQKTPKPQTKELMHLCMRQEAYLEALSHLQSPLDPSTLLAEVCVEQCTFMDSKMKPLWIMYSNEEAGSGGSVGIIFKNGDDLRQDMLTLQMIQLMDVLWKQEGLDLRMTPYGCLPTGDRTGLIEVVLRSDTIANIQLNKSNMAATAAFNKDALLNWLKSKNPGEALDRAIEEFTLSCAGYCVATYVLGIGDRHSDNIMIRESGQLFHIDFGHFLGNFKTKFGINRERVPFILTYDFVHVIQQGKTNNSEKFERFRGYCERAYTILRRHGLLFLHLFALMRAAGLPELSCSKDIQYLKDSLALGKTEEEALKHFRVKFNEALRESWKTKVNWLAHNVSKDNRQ
T2 sequence (P27986 whole entry partner): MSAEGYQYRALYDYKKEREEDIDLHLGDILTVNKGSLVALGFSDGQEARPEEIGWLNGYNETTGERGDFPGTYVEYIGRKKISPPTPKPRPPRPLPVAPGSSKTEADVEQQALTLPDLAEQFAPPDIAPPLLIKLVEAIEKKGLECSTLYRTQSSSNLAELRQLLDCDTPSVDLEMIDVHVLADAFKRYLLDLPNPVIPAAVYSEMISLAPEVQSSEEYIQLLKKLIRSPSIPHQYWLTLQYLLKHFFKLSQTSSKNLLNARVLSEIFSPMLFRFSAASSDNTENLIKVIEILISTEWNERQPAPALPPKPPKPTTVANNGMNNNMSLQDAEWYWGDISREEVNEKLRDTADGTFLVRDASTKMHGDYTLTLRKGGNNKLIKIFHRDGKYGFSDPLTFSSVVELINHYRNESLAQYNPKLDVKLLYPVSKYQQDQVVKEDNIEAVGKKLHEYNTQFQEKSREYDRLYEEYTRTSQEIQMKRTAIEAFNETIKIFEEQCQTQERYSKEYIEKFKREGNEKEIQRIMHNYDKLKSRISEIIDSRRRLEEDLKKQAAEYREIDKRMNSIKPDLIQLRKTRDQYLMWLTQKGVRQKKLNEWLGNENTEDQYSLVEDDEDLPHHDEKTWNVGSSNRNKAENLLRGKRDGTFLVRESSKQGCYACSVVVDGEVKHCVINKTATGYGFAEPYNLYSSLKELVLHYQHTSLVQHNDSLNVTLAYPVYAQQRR

| IC50 (PI3 Kgamma (PI3 Kg)) | IC50 (PI3K delta (PI3 Kd)) | SMILES |
| --- | --- | --- |
| > 10 µM | > 10 µM | CCNC(=O)Nc1ccc(-c2nc3c(c(N4CCOC[C@@H]4C)n2)CCN(C(=O)OC)C3)cc1 [Example 81, (S)-methyl 2-(4-(3-ethylureido)phenyl)-4-(3-methylmorpholino)-5,6-dihydropyrido[3,4-d]pyrimidine-7(8H)-carboxylate] |
| > 10 µM | > 10 µM | COC(=O)N1CCc2c(nc(-c3ccc(NC(=O)NC4CC4)cc3)nc2N2CCOC[C@@H]2C)C1 [Example 83, (S)-methyl 2-(4-(3-cyclopropylureido)phenyl)-4-(3-methylmorpholino)-5,6-dihydropyrido[3,4-d]pyrimidine-7(8H)-carboxylate] |
| > 10 µM | > 10 µM | C[C@H]1COCCN1c1nc(-c2ccc(NC(=O)Nc3ccn(C)n3)cc2)nc2c1CN(C)C2 [Example 84, (S)-1-(1-methyl-1H-pyrazol-3-yl)-3-(4-(6-methyl-4-(3-methylmorpholino)-6,7-dihydro-5H-pyrrolo[3,4-d]pyrimidin-2-yl)phenyl)urea] |
| > 10 µM | > 10 µM | CCNC(=O)Nc1ccc(-c2nc3c(c(N4CCOC[C@@H]4C)n2)CN(C)C3)cc1F [Example 85, (S)-1-ethyl-3-(2-fluoro-4-(6-methyl-4-(3-methylmorpholino)-6,7-dihydro-5H-pyrrolo[3,4-d]pyrimidin-2-yl)phenyl)urea] |
| > 10 µM | > 10 µM | COC(=O)N1Cc2nc(-c3ccc(NC(=O)NC4CC4)cc3)nc(N3CCOC[C@@H]3C)c2C1 [Example 86, (S)-methyl 2-(4-(3-cyclopropylureido)phenyl)-4-(3-methylmorpholino)-5H-pyrrolo[3,4-d]pyrimidine-6(7H)-carboxylate] |
| > 10 µM | > 10 µM | CCNC(=O)Nc1ccc(-c2nc3c(c(N4CCOC[C@@H]4C)n2)CCN(C(=O)NCC)C3)cc1 [Example 87, (S)—N-ethyl-2-(4-(3-ethylureido)phenyl)-4-(3-methylmorpholino)-5,6-dihydropyrido[3,4-d]pyrimidine-7(8H)-carboxamide] |
| > 10 µM | > 10 µM | CCNC(=O)N1CCc2c(nc(-c3ccc(NC(=O)NC4CC4)cc3)nc2N2CCOC[C@@H]2C)C1 [Example 88, (S)-2-(4-(3-cyclopropylureido)phenyl)-N-ethyl-4-(3-methylmorpholino)-5,6-dihydropyrido[3,4-d]pyrimidine-7(8H)-carboxamide] |
| > 10 µM | > 10 µM | CCNC(=O)Nc1ccc(-c2nc3c(c(N4CCOC[C@@H]4C)n2)CN(C(=O)OC)C3)cc1 [Example 89, (S)-methyl 2-(4-(3-ethylureido)phenyl)-4-(3-methylmorpholino)-5H-pyrrolo[3,4-d]pyrimidine-6(7H)-carboxylate] |
| > 10 µM | > 10 µM | CCNC(=O)Nc1ccc(-c2nc3c(c(N4CCOC[C@@H]4C)n2)CN(C(=O)OCC)C3)cc1 [Example 90, (S)-ethyl 2-(4-(3-ethylureido)phenyl)-4-(3-methylmorpholino)-5H-pyrrolo[3,4-d]pyrimidine-6(7H)-carboxylate] |
| > 10 µM | > 10 µM | CCNC(=O)Nc1ccc(-c2nc3c(c(N4CCOC[C@@H]4C)n2)CCN(C(=O)Cc2cccnc2)C3)cc1 [Example 91, (S)-1-ethyl-3-(4-(4-(3-methylmorpholino)-7-(2-(pyridin-3-yl)acetyl)-5,6,7,8-tetrahydropyrido[3,4-d]pyrimidin-2-yl)phenyl)urea] |
| > 10 µM | > 10 µM | CCNC(=O)Nc1ccc(-c2nc3c(c(N4CCOCC4)n2)CCN(C)C3)cc1 [Example 93, 1-ethyl-3-(4-(7-methyl-4-morpholino-5,6,7,8-tetrahydropyrido[3,4-d]pyrimidin-2-yl)phenyl)urea] |
| > 10 µM | > 10 µM | CCNC(=O)Nc1ccc(-c2nc3c(c(N4CCOCC4)n2)CCN(C(=O)NCC)C3)cc1 [Example 94, N-ethyl-2-(4-(3-ethylureido)phenyl)-4-morpholino-5,6-dihydropyrido[3,4-d]pyrimidine-7(8H)-carboxamide] |
| > 10 µM | > 10 µM | CCNC(=O)Nc1ccc(-c2nc3c(c(N4CCOCC4)n2)CCN(C(=O)OCC)C3)cc1 [Example 96, ethyl 2-(4-(3-ethylureido)phenyl)-4-morpholino-5,6-dihydropyrido[3,4-d]pyrimidine-7(8H)-carboxylate] |
| > 10 µM | 1 to 10 µM | CCNC(=O)Nc1ccc(-c2nc3c(c(N4CCOCC4)n2)CCN(C(C)=O)C3)cc1 [Example 97, 1-(4-(7-acetyl-4-morpholino-5,6,7,8-tetrahydropyrido[3,4-d]pyrimidin-2-yl)phenyl)-3-ethylurea] |
| > 10 µM | > 10 µM | CCNC(=O)Nc1ccc(-c2nc3c(c(N4CCOCC4)n2)CCN(C(=O)C(C)(C)C)C3)cc1 [Example 98, 1-ethyl-3-(4-(4-morpholino-7-pivaloyl-5,6,7,8-tetrahydropyrido[3,4-d]pyrimidin-2-yl)phenyl)urea] |
| > 10 µM | > 10 µM | CCNC(=O)Nc1ccc(-c2nc3c(c(N4CCOCC4)n2)CN(C(=O)C(C)(C)C)C3)cc1 [Example 100, 1-ethyl-3-(4-(4-morpholino-6-pivaloyl-6,7-dihydro-5H-pyrrolo[3,4-d]pyrimidin-2-yl)phenyl)urea] |
| > 10 µM | > 10 µM | CCNC(=O)Nc1ccc(-c2nc3c(c(N4CCOC[C@@H]4C)n2)CCN(C(=O)CO)C3)cc1 [Example 102, (S)-1-ethyl-3-(4-(7-(2-hydroxyacetyl)-4-(3-methylmorpholino)-5,6,7,8-tetrahydropyrido[3,4-d]pyrimidin-2-yl)phenyl)urea] |
| > 10 µM | > 10 µM | CCNC(=O)Nc1ccc(-c2nc3c(c(N4CCOC[C@@H]4C)n2)CN(C(=O)OCC)C3)cc1F [Example 103, (S)-ethyl-2-(4-(3-ethylureido)-3-fluorophenyl)-4-(3-methylmorpholino)-5H-pyrrolo[3,4-d]pyrimidine-6(7H)-carboxylate] |
| > 10 µM | > 10 µM | CCOC(=O)N1Cc2nc(-c3ccc(NC(=O)NCCO)c(F)c3)nc(N3CCOC[C@@H]3C)c2C1 [Example 104, (S)-ethyl-2-(3-fluoro-4-(3-(2-hydroxyethyl)ureido)phenyl)-4-(3-methylmorpholino)-5H-pyrrolo[3,4-d]pyrimidine-6(7H)-carboxylate] |
| > 10 µM | > 10 µM | CCOC(=O)N1Cc2nc(-c3ccc(NC(=O)NC4CC4)c(F)c3)nc(N3CCOC[C@@H]3C)c2C1 [Example 105, (S)-ethyl 2-(4-(3-cyclopropylureido)-3-fluorophenyl)-4-(3-methylmorpholino)-5H-pyrrolo[3,4-d]pyrimidine-6(7H)-carboxylate] |
| > 10 µM | > 10 µM | CCNC(=O)Nc1ncc(-c2nc3c(c(N4CCOC[C@@H]4C)n2)CCN(C)C3)s1 [Example 106, (S)-1-ethyl-3-(5-(7-methyl-4-(3-methylmorpholino)-5,6,7,8-tetrahydropyrido[3,4-d]pyrimidin-2-yl)thiazol-2-yl)urea] |
| > 10 µM | > 10 µM | CCNC(=O)Nc1ccc(-c2nc3c(c(N4CCOC[C@@H]4C)n2)CN(C(=O)OCC)CC3)cc1 [Example 107, (S)-ethyl 2-(4-(3-ethylureido)phenyl)-4-(3-methylmorpholino)-7,8-dihydropyrido[4,3-d]pyrimidine-6(5H)-carboxylate] |
